Test results reported in PMC12519464, “Dual-Site Inhibition of SARS-CoV‑2 RNA-Dependent RNA Polymerase by Small Molecules Able to Block Viral Replication Identified through a Computer-Aided Drug Discovery Approach” (ACS Infectious Diseases, 2025).
Like-named read-outs stand apart in the source and are kept apart here.

Experiments:
[1] = molecular target: SARS-CoV-2 nsp12/7/8 (RTC) complex (Severe acute respiratory syndrome coronavirus 2, UniProt P0DTD1); assay: biochemical; assay type: biochemical
[2] = tested on: SARS-CoV-2 (BetaCov/Belgium/GHB-03021/2020); assay: in vitro; conditions: African green monkey
[3] = tested on: SARS-CoV-2 (BetaCov/Belgium/GHB-03021/2020); assay: microbe, parasite or virus in culture; conditions: Severe acute respiratory syndrome coronavirus 2, Vero C1008, read-out: EC50: compound concentration required to inhibit SARS-CoV-2 replication by 50%
[4] = Compounds cytotoxicity in the Vero E6 cell line; conditions: African green monkey, Vero E6 cells stably expressing GFP, with CP-100356 (P-gp inhibitor), 2 μM
in vitro = conditions: African green monkey
[5] = tested on: SARS-CoV-2 (BetaCov/Belgium/GHB-03021/2020)
SARS-CoV-2 RTC = SARS-CoV-2 RTC (Severe acute respiratory syndrome coronavirus 2, UniProt P0DTD1); assay type: biochemical; conditions: competing against RNA or GTP substrates; Lineweaver-Burk plots
RNA substrate = assay: Microscale Thermophoresis/Spectral Shift binding assay with RNA substrate (Monolith X); conditions: data not shown
SARS-CoV-2 = conditions: cited from earlier work
SARS-CoV-2 minimal RTC = SARS-CoV-2 minimal RTC (Severe acute respiratory syndrome coronavirus 2, UniProt P0DTD1); assay type: binding
[6] = primer-extension PAGE assay, 150 nM RTC, 5% DMSO, 30 min preincubation at 37 °C, mean and SD of at least 3 independent experiments
[7] = read-out: IC50: compound concentration required to inhibit by 50% the SARS-CoV-2 RTC enzymatic activity
[8] = 500 µM compound, Microscale Thermophoresis, Fig. S3

## CC(=O)O[C@@H]1CC[C@@]2(C)[C@@H](CC[C@]3(C)[C@@H]2C(=O)C=C2[C@@H]4[C@@H](C)[C@H](C)CC[C@]4(C)CC[C@]23C)[C@@]1(C)C(=O)O [AKBA, 3-O-Acetyl-11-Keto-Beta-Boswellic Acid]
[1]
  IC50: 4.98 ± 1.44 µM
[2]
  selectivity ratio: > 20.8
[3]
  EC50: 4.81 ± 2.15 µM
[4]
  CC50 at 24 h: > 100 µM

## Cc1oc2c(C)c3oc(=O)c(CCC(=O)N4CCC(C(=O)O)(c5ccccc5)CC4)c(C)c3cc2c1-c1ccccc1 [Cmp_4, 4-phenyl-1-[3-(2,5,9-trimethyl-7-oxo-3-phenylfuro[3,2-g]chromen-6-yl)propanoyl]piperidine-4-carboxylic acid]
[1]; [6]
  IC50: 8.21 ± 4.87 µM
[2]
  selectivity ratio: > 38.4
In vitro
  CC50 at 24 h: > 100 µM
[3]
  EC50: 2.61 ± 0.18 µM

## CC(C)C[C@H](NC(=O)OCc1ccccc1)C(=O)N[C@@H](CC1CCNC1=O)C(O)S(=O)(=O)O (some centres unmarked) [GC376]
[5]; read-out: EC50: compound concentration required to inhibit SARS-CoV-2 replication by 50%
  EC50: 0.06 ± 0.03 µM
Vero E6 GFP
  CC50: > 100 µM

## CC(C)C[C@H](NC(=O)OCc1ccccc1)C(=O)N[C@@H](C[C@@H]1CCNC1=O)C(O)S(=O)(=O)[O-].[Na+] (some centres unmarked) [GC376]
[5]
  SI: selective index, ratio of CC50/EC50: >5,882

## O=C(O)c1c(Cl)c(Cl)c(Cl)c(Cl)c1-c1c2cc(I)c(=O)c(I)c-2oc2c(I)c(O)c(I)cc12 [Rose bengal]
[1]; [6]
  IC50: 0.25 ± 0.0036 µM
SARS-CoV-2 RTC
  mode of inhibition of SARS-CoV-2 RdRp: mixed model of inhibition
RNA substrate
  interaction with RNA substrate: no evidence of interaction
SARS-CoV-2; ref previous studies (number not given; probably 25, Rubekina et al.), read-out: EC50, inhibition of SARS-CoV-2 replication
  EC50: 0.5 µM
[2]
  selectivity ratio: > 546
In vitro
  CC50: > 100 µM
[3]
  EC50: 0.18 ± 0.02 µM

## Oc1cccc(-c2c3nc(c(-c4cccc(O)c4)c4ccc([nH]4)c(-c4cccc(O)c4)c4nc(c(-c5cccc(O)c5)c5ccc2[nH]5)CC4)C=C3)c1 [Temoporfin, reference compound]
[1]
  IC50: > 100 µM

## O=C(O[C@@H]1Cc2c(O)cc(O)cc2O[C@@H]1c1cc(=O)c(O)c2c(O)c(O)cc([C@H]3Oc4cc(O)cc(O)c4C[C@H]3O)c2c1)c1cc(O)c(O)c(O)c1 [Theaflavin 3-gallate]
[1]; [7]
  IC50: 19.8 ± 3.49 µM

## C[C@H]1CC[C@]2(NC1)O[C@H]1C[C@H]3[C@@H]4CC[C@H]5C[C@@H](O)CC[C@]5(C)[C@H]4CC[C@]3(C)[C@H]1[C@@H]2C [Tomatidine]
[1]
  IC50: 51.4 ± 5.58 µM

## C[C@@H]1CC[C@]2(C(=O)O)CC[C@]3(C)C(=CC[C@@H]4[C@@]5(C)C[C@@H](O)[C@H](O)C(C)(C)[C@@H]5CC[C@]43C)[C@@H]2[C@]1(C)O [Tormentic acid]
[1]; [7]
  IC50: > 100 µM

## O=C(c1ccccc1Cl)c1cccnc1-c1nnn(Cc2cc(C(F)(F)F)cc(C(F)(F)F)c2)c1-c1ccncc1 [Tradipitant, reference compound]
[1]; [7]
  IC50: > 100 µM

## Cc1cc(Nc2ncnc3ccc(NC4=NC(C)(C)CO4)cc23)ccc1Oc1ccn2ncnc2c1 [Tucatinib, reference compound]
[1]; [6]
  IC50: > 100 µM

## CC(C)Oc1ccc(-c2nn([C@@H](C)c3oc4ccc(F)cc4c(=O)c3-c3cccc(F)c3)c3ncnc(N)c23)cc1F [Umbralisib, reference compound]
[1]
  IC50: > 100 µM

## C[C@H]1[C@H](C)CC[C@]2(C(=O)O)CC[C@]3(C)C(=CC[C@@H]4[C@@]5(C)CC[C@H](O)C(C)(C)[C@@H]5CC[C@]43C)[C@H]12 [Ursolic acid, reference compound]
[1]
  IC50: > 100 µM

## C[C@H]1[C@H](C)CC[C@]2(C(=O)O)CC[C@]3(C)C(=CC[C@@H]4[C@@]5(C)CCC(=O)C(C)(C)[C@@H]5CC[C@]43C)[C@H]12 [Ursonic acid]
[1]
  IC50: 26.5 ± 12.6 µM

## CC1(C)CCC(CN2CCN(c3ccc(C(=O)NS(=O)(=O)c4ccc(NCC5CCOCC5)c([N+](=O)[O-])c4)c(Oc4cnc5[nH]ccc5c4)c3)CC2)=C(c2ccc(Cl)cc2)C1 [Venetoclax]
[1]; [6]
  IC50: 2.37 ± 0.42 µM
SARS-CoV-2 RTC
  mode of inhibition of SARS-CoV-2 RdRp: noncompetitive mode of inhibition
SARS-CoV-2 minimal RTC; [8]
  response amplitude: 3.9
  signal-to-noise ratio: 7.7
SARS-CoV-2 minimal RTC; single concentration of 500 μM of compound
  binding check to SARS-CoV-2 minimal RTC: specific binding
SARS-CoV-2; ref number not printed in the text (probably 27, Milani et al.), read-out: EC50, inhibition of SARS-CoV-2 replication in cell culture
  EC50: 6 µM
[2]
  selectivity ratio: > 118
In vitro
  CC50: > 100 µM
[3]
  EC50: 0.85 ± 0.08 µM

## CC(C)(C)NC(=O)c1ccc(Oc2cc(F)c(CC(=O)O)cc2Cl)c(NS(=O)(=O)c2ccc(C3CC3)cc2Cl)c1 [Vidupiprant, reference compound]
[1]; [6]
  IC50: 63.5 ± 24.3 µM

## Cc1ccc(C(=O)NNC(=O)c2c(C)cccc2Cl)cc1C#Cc1cnc2ccccc2c1 [Vodobatinib, reference compound]
[1]; [6]
  IC50: > 100 µM

## CCOC(=O)N[C@@H]1CC[C@@H]2[C@@H](C1)C[C@H]1C(=O)O[C@H](C)[C@H]1[C@H]2/C=C/c1ccc(-c2cccc(F)c2)cn1 [Vorapaxar, reference compound]
[1]
  IC50: > 100 µM

## CC1(C)[C@@H](O)CC[C@]2(C)[C@H]3CC=C4[C@@H]5C[C@@]6(C)C[C@H](OC6=O)[C@]5(C)CC[C@@]4(C)[C@]3(C)CC[C@@H]12 [Wilforlide A]
[1]; [7]
  IC50: > 100 µM

## Dryocrassin ABBA
[1]; [7]
  IC50: 14.5 ± 5.46 µM
